This is an account of results in ChEMBL document CHEMBL1150893, “Grenadadiene and grenadamide, cyclopropyl-containing fatty acid metabolites from the marine cyanobacterium Lyngbya majuscula” (J Nat Prod, 1998).

Values after ≈ are worked out from the molar mass of the structure shown.

Data set [1] is described as follows: Toxicity in Artemia salina. It counts as organism-based. Particulars: in vivo, read-out: LD50 (the source's name).
Data set [2] is described as follows: Binding affinity to cannabinoid receptor in rat brain membrane assessed as cannabinomimetic activity. In kind it is cell membranes.

Regarding `CCCCCCC[C@@H]1C[C@H]1CCC(=O)NCCc1ccccc1` [GRENADAMIDE C], the LC50 in data set [1] worked out at 5 µg/mL (≈ 15.8 µM). In addition, the Ki – broadly, the dissociation constant of the complex between target and ligand, obtained from inhibition or displacement – in data set [2] stood at 4.7 µM.

As to `CCCCCCC[C@@H]1C[C@H]1CCC(=O)O/C=C\C=C\COC(C)=O` [DEBROMOGRENADINE], the LC50 in data set [1] came out at 5 µg/mL (≈ 14.9 µM). Also, in data set [2], the inhibitory constant (Ki) worked out at 4.7 µM.
